Assay results taken from patent US12479847B2 (DANA-FARBER CANCER INSTITUTE, INC., priority 2019, dated 2025).

Experiments:
Test in all cases: KINOMEscan (ScanMAX) kinase profiling
Type in all cases: binding
panel of 468 kinases [1] = biological target: T1, panel of 468 kinases (Homo sapiens, UniProt P00533); details: EGFR; 1 μM; read-out: % control
T1 construct: purchased KINOMEscan (ScanMAX) service

panel of 468 kinases [2] = biological target: T2, panel of 468 kinases (Homo sapiens, UniProt Q9BWU1); details: CDK11; 1 μM; read-out: % control
T2 construct: purchased KINOMEscan (ScanMAX) service

panel of 468 kinases [3] = biological target: T3, panel of 468 kinases (Homo sapiens, UniProt P42336, E545A); details: PIK3CA(E545A); 1 μM; read-out: % control
T3 construct: purchased KINOMEscan (ScanMAX) service

panel of 468 kinases [4] = biological target: T4, panel of 468 kinases (Homo sapiens, UniProt Q96J92); details: WNK4; 1 μM; read-out: % control
T4 construct: purchased KINOMEscan (ScanMAX) service

panel of 468 kinases [5] = biological target: T5, panel of 468 kinases (Homo sapiens, UniProt Q13188); details: MST2; 1 μM; read-out: % control
T5 construct: purchased KINOMEscan (ScanMAX) service
T5 sequence (Q13188 1-491): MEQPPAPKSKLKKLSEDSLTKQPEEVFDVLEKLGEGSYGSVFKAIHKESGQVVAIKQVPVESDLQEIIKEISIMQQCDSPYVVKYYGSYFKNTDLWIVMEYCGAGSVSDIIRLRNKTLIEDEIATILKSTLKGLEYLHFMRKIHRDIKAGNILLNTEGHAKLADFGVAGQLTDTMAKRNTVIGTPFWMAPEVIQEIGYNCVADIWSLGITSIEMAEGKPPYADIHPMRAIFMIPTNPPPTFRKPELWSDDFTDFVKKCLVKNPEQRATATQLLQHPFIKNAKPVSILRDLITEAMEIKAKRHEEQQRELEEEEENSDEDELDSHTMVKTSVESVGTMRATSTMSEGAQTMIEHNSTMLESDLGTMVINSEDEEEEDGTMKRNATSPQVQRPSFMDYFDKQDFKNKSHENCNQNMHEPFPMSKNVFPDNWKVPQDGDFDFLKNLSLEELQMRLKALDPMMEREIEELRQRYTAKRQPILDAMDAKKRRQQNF

panel of 468 kinases [6] = biological target: T6, panel of 468 kinases (Homo sapiens, UniProt Q8IW41); details: MAPKAPK5; 1 μM; read-out: % control
T6 construct: purchased KINOMEscan (ScanMAX) service
T6 sequence (Q8IW41 1-473): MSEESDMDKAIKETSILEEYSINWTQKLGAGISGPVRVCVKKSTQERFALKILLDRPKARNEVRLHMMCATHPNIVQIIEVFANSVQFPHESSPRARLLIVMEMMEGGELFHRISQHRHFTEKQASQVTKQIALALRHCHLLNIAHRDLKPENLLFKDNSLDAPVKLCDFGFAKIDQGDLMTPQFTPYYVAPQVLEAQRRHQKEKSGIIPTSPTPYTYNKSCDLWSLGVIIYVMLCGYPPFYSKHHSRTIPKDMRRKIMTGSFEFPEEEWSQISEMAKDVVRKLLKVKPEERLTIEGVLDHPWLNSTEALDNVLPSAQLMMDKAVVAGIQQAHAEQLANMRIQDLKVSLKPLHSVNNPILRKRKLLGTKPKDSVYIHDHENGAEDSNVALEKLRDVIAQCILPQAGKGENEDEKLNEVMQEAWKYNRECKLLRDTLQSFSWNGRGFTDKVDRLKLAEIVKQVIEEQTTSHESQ

panel of 468 kinases [7] = biological target: T7, panel of 468 kinases (Homo sapiens, UniProt Q06418); details: TYRO3; 1 μM; read-out: % control
T7 construct: purchased KINOMEscan (ScanMAX) service
T7 sequence (Q06418 41-890): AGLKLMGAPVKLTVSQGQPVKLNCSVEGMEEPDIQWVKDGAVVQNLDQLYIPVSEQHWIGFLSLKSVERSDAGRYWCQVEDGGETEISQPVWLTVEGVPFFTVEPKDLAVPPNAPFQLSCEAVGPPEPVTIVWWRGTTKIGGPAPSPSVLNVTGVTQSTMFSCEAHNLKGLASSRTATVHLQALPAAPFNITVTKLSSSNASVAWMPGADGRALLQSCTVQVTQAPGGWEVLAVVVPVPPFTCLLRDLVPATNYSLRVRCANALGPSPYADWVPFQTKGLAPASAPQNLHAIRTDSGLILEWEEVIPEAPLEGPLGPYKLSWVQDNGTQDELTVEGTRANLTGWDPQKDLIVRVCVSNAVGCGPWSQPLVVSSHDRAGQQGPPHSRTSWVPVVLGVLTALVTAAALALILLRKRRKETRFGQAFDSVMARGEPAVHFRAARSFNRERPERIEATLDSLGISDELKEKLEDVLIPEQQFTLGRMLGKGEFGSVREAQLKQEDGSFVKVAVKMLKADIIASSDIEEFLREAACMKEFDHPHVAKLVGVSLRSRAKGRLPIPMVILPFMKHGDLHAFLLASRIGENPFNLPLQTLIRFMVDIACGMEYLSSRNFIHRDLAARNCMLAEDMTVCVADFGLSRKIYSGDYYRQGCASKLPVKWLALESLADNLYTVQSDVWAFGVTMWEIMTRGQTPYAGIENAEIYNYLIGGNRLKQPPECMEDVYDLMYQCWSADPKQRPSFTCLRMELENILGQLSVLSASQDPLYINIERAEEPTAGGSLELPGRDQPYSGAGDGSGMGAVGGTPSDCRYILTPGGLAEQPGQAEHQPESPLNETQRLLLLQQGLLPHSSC

T4 sequence (Q96J92 whole entry): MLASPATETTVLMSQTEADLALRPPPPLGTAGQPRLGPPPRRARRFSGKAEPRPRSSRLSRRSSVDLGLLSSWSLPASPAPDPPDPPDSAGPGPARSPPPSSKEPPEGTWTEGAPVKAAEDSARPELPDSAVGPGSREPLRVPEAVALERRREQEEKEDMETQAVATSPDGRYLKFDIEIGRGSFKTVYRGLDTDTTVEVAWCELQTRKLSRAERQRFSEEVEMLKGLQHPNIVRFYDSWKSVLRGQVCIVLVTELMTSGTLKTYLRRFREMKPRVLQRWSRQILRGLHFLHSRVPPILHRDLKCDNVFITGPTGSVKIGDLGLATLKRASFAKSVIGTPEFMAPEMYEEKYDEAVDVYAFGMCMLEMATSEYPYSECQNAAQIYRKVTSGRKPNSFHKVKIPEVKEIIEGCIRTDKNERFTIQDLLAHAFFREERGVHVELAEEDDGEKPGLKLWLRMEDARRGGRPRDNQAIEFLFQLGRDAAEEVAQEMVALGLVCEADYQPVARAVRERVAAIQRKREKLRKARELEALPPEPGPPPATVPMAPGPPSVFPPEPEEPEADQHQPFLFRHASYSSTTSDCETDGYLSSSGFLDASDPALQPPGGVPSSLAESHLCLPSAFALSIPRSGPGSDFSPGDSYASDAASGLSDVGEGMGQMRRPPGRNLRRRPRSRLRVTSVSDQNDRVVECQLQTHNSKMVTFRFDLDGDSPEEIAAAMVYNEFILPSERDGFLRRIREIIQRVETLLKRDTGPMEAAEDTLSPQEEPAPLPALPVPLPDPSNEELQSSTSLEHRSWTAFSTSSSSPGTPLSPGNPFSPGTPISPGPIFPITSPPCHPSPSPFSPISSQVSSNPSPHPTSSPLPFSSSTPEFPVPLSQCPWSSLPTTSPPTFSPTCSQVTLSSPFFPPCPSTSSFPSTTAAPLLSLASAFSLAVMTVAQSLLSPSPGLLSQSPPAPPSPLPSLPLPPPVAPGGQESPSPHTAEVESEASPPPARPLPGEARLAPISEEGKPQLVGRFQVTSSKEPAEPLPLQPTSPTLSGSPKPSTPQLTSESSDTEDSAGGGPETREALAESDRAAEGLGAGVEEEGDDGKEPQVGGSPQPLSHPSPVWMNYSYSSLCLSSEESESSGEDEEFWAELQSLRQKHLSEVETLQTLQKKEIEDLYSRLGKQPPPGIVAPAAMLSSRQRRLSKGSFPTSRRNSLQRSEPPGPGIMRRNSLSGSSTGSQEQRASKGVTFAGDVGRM
T1 sequence (P00533 25-1210): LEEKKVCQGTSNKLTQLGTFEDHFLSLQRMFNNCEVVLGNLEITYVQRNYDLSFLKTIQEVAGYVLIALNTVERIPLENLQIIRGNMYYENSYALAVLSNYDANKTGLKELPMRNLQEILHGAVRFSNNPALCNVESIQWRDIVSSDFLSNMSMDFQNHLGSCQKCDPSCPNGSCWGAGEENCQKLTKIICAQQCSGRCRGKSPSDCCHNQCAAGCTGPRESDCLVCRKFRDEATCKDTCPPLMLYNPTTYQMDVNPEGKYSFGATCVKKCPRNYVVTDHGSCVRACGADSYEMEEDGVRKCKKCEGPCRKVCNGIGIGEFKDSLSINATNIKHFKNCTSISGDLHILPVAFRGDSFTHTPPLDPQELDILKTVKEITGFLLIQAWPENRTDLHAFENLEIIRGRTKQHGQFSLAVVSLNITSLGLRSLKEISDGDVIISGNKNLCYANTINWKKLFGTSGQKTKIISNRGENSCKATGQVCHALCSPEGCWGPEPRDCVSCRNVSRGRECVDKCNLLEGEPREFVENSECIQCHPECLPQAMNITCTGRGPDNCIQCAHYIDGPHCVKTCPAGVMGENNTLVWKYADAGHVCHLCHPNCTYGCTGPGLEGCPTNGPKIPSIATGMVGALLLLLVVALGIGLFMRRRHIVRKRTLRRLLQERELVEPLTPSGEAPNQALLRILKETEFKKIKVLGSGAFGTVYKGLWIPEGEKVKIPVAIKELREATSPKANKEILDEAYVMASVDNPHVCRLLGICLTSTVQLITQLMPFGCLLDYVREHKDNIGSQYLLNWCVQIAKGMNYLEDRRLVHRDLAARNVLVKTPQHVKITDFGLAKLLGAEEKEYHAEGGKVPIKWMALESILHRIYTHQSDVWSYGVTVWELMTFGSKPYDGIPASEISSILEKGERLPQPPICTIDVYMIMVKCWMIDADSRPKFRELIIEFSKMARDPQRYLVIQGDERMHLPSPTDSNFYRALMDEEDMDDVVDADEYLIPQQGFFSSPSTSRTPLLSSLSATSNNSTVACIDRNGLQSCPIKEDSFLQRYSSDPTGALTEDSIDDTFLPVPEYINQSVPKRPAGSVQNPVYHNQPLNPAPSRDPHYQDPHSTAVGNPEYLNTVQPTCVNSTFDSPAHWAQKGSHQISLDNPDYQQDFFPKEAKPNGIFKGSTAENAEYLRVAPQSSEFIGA
T2 sequence (Q9BWU1 whole entry): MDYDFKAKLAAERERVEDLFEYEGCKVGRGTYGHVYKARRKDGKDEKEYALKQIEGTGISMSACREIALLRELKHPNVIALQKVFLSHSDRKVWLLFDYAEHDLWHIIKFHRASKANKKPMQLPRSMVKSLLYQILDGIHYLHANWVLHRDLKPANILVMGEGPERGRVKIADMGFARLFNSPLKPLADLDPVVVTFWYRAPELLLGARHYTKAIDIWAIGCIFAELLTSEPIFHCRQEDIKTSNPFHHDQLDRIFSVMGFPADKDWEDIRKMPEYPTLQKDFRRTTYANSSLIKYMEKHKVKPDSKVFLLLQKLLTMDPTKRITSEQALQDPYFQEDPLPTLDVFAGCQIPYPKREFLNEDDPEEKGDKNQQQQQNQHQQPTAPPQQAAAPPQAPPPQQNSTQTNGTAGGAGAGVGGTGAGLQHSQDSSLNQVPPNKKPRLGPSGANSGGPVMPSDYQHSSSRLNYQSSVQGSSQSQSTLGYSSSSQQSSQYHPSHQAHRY
T3 sequence (P42336 whole entry E545A): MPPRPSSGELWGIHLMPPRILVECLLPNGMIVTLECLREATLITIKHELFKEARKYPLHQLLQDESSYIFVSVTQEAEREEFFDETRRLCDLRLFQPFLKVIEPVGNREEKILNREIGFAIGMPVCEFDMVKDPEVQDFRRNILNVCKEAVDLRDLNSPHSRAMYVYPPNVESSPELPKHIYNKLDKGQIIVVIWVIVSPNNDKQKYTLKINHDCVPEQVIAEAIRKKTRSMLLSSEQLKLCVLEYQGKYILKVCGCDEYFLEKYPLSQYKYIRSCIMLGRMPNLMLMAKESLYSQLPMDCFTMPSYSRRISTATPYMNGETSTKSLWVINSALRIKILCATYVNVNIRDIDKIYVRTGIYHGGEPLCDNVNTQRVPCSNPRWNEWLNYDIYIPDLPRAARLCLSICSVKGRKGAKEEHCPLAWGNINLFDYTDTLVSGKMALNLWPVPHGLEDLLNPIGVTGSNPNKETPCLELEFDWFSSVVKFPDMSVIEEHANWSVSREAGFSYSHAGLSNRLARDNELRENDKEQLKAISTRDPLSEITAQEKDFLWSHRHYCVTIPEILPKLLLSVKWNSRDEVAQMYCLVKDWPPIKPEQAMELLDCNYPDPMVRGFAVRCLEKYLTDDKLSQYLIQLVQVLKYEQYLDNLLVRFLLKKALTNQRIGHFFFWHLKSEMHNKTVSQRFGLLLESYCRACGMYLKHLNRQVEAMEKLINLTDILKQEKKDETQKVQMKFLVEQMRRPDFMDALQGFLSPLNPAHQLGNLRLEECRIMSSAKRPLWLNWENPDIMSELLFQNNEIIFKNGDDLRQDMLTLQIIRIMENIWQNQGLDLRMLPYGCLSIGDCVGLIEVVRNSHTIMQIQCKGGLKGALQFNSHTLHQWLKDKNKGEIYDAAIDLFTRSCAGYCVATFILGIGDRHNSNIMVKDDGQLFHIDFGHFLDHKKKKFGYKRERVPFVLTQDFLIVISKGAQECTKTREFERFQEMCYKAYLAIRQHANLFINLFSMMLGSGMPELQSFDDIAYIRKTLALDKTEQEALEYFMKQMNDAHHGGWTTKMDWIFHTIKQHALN

## CNc1nc(Nc2ccc(S(=O)(=O)N3CCC(N4CCOCC4)CC3)cc2OC)nc2[nH]cc(Cl)c12 [Compound 12, 5-chloro-N2-(2-methoxy-4-((4-morpholinopiperidin-1-yl)sulfonyl)phenyl)-N4-methyl-7H-pyrrolo[2,3-d]pyrimidine-2,4-diamine]
Panel of 468 kinases [1]
  remaining binding at 1 µM: 89%
Panel of 468 kinases [2]
  remaining binding at 1 µM: 100%
Panel of 468 kinases [3]
  remaining binding at 1 µM: 100%
Panel of 468 kinases [4]
  remaining binding at 1 µM: 61%
Panel of 468 kinases [5]
  remaining binding at 1 µM: 100%
Panel of 468 kinases [6]
  remaining binding at 1 µM: 67%
Panel of 468 kinases [7]
  remaining binding at 1 µM: 100%

## CNc1nc(Nc2ccc(P3(=O)CCN(C4CCOCC4)CC3)cc2OC)nc2[nH]cc(Cl)c12 [Compound 77, 4-(4-((5-chloro-4-(methylamino)-7H-pyrrolo[2,3-d]pyrimidin-2-yl)amino)-3-methoxyphenyl)-1-(tetrahydro-2H-pyran-4-yl)-1,4-azaphosphinane 4-oxide]
Panel of 468 kinases [1]
  remaining binding at 1 µM: 84%
Panel of 468 kinases [2]
  remaining binding at 1 µM: 100%
Panel of 468 kinases [3]
  remaining binding at 1 µM: 100%
Panel of 468 kinases [4]
  remaining binding at 1 µM: 66%
Panel of 468 kinases [5]
  remaining binding at 1 µM: 100%
Panel of 468 kinases [6]
  remaining binding at 1 µM: 46%
Panel of 468 kinases [7]
  remaining binding at 1 µM: 100%

## CNc1nc(Nc2ccc(C(=O)N3CCC(N4CCOCC4)CC3)c3c2OCO3)nc2[nH]cc(Cl)c12 [Compound 75, (7-((5-chloro-4-(methylamino)-7H-pyrrolo[2,3-d]pyrimidin-2-yl)amino)benzo[d][1,3]dioxol-4-yl)(4-morpholinopiperidin-1-yl)methanone]
Panel of 468 kinases [1]
  remaining binding at 1 µM: 80%
Panel of 468 kinases [2]
  remaining binding at 1 µM: 98%
Panel of 468 kinases [3]
  remaining binding at 1 µM: 100%
Panel of 468 kinases [4]
  remaining binding at 1 µM: 66%
Panel of 468 kinases [5]
  remaining binding at 1 µM: 45%
Panel of 468 kinases [6]
  remaining binding at 1 µM: 43%
Panel of 468 kinases [7]
  remaining binding at 1 µM: 100%
